Measured values taken from article PMC5905120, “An innovative immunotherapeutic strategy for ovarian cancer: CLEC10A and glycomimetic peptides” (Journal for Immunotherapy of Cancer, 2018).
“Also recorded” adds a separate entry of the source. Bridges are numbered along the chain shown (N, C = ends). Roman numbers before positions name the chains, in order. Where no end group is shown, it is not given here.

Columns and labels:
[1] = system: ASGPR-1; settings: cited from earlier work
Protocol: The type II C-type lectin asialoglycoprotein receptor-1 (ASGPR-1, Ashwell-Morell receptor, CLEC4H1) on hepatic cells also binds GalNAc-containing structures. ASGPR-1 has a 60-fold greater preference for GalNAc over Gal. Each healthy rat hepatocyte expresses 4 to 5 × 10^5 molecules of ASGPR-1 as binding sites for asialo-orosomucoid or 1.8 × 10^6 molecules as determined by an ASGPR-1-targeted antibody, which provides a surface concentration for the receptor of 0.8 to 1 μM. […] Corresponding values for binding of svL4 to CLEC10A and ASGPR-1 of 0.24 ± 0.04 μM and 0.21 ± 0.03 μM, respectively, were obtained. […] Asialofetuin, a multi-glycosylated pro ...

[2] = system: ID8 ovarian cancer in C57BL/6 mice; assay: Murine ovarian cancer model (ID8), sv6D and paclitaxel study; type: in vivo, mouse (C57BL/6)
Excerpt: Mantel-Cox log-rank test, p (sv6D vs. PBS) = < 0.0001. Paclitaxel, brown; sv6D from day 45, blue; paclitaxel plus sv6D from day 100, purple; cremophor, yellow; PBS, black

[3] = system: ASGPR-1; assay: Inhibition of svL4 binding to ASGPR-1; set-up: species or system human; settings: 75 μM asialofetuin, 0.2 μM svL4
Protocol: Solid-phase binding assays were performed with streptavidin-, protein A/G-, or Nickel-coated microtiter plates (Pierce). His-tagged or Fc-fusion recombinant receptors (R&D Systems, Minneapolis, MN) were reconstituted in PBS. Sufficient receptors were added to wells to saturate the coating. His-tagged receptors were added to each well at a 5-fold excess over the stated capacity of the Ni coating to minimize non-specific binding of the peptide. […] The wells were washed four times with binding buffer and then incubated with 50 μL of 1 μg/mL streptavidin conjugated with peroxidase (Sigma-Aldrich) for 1 h. The wells were washed five times with binding buffer and 50 μL of peroxidase substrate (1-Step™ Ultra TMB, Pierce) were added. After several minutes to allow color development, the reaction was stopped with 50 μL 1 M H3PO4 and absorbance was measured at 450 nm. Bound streptavidin was quantitated by the specific activity of peroxidase (absorbance/ng protein conjugate/min) under the conditions of the assay.
Corresponding values for binding of svL4 to CLEC10A and ASGPR-1 of 0.24 ± 0.04 μM and 0.21 ± 0.03 μM, respectively, were obtained.

[4] = Antigenicity assay in mouse sera; type: in vivo; settings: 1 nmole/g s.c., alternate days for 3 months; sera of 8 treated mice, Fig. 8
Protocol: The sequence of one arm of svL4 or sv6D was conjugated to keyhole limpet hemocyanin (KLH) and injected into rabbits at two week intervals (total of 3 injections) (New England Peptide, Inc., Gardner, MA). Two weeks after the final injection, sera were prepared. Mice were injected with a peptide every other day over a period of 3 months (total ~ 45 injections), blood was then collected by cardiac puncture and sera were prepared. Rabbit serum was diluted 1:10, whereas mouse serum was diluted 1:1 or 1:5 with PBS containing 0.05% Tween-20 (PBST). Sera were incubated in microtiter wells coated with protein A/G (Pierce) for 90 min. The wells were washed three times with PBST, and then incubated with 50 μL of 1 μM biotinylated svL4 or sv6D for 1 h. The wells were washed four times with PBST, incubated 1 h with 1 μg/mL streptavidin-peroxidase conjugate, and washed four times with PBST. Peroxidase activity was assayed as above under Binding Assays.
Fig. 8 Test for antigenicity of svL4 and sv6D. Anti-sera were generated in rabbits against KLH-conjugates of the sequences of svL4 or sv6D and diluted 1:10. Mouse sera were collected after alternate-day injections of svL4 over 3 months, diluted 1:1 with PBS and added to protein-A/G-coated wells. Biotinylated svL4 or sv6D was added to wells and bound peptide was detected with a streptavidin-peroxidase conjugate. […]

[5] = biological target: T1, human CLEC10A (Homo sapiens, UniProt Q8IUN9); assay: Solid-phase binding to recombinant human CLEC10A; settings: for binding to CLEC10A: Fig. 2a, representative of 3 independent experiments
T1 construct: purchased R&D Systems
T1 sequence (Q8IUN9 61-316 limits assumed): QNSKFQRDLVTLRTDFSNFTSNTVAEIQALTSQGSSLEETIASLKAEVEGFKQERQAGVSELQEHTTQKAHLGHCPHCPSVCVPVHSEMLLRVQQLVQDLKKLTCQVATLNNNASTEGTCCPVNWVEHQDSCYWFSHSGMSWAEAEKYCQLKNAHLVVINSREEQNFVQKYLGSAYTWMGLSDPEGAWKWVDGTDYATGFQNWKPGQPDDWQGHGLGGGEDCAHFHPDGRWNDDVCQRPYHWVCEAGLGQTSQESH
Protocol: (§1) Solid-phase binding assays were performed with streptavidin-, protein A/G-, or Nickel-coated microtiter plates (Pierce). His-tagged or Fc-fusion recombinant receptors (R&D Systems, Minneapolis, MN) were reconstituted in PBS. Sufficient receptors were added to wells to saturate the coating. His-tagged receptors were added to each well at a 5-fold excess over the stated capacity of the Ni coating to minimize non-specific binding of the peptide. Wells were washed three times with binding buffer (25 mM Tris HCl, pH 7.4, 150 mM NaCl, 0.05% Tween-20) to remove unbound receptor and 50 μL of 2 μM biotinylated peptide in binding buffer were added and allowed to incubate for 1 h. The wells were washed four times with binding buffer and then incubated with 50 μL of 1 μg/mL streptavidin conjugated with peroxidase (Sigma-Aldrich) for 1 h. The wells were washed five times with binding buffer and 50 μL of peroxidase substrate (1-Step™ Ultra TMB, Pierce) were added. After several minutes to allow color development, the reaction was stopped with 50 μL 1 M H3PO4 and absorbance was measured at 450 nm. Bound streptavidin was quantitated by the specific activity of peroxidase (absorbance/ng protein conjugate/min) under the conditions of the assay.
(§2) Solid-phase binding assays were performed with recombinant human receptors. Three variations of the binding assay were used in this study, all of which allowed the arms of the tetravalent peptide to have full flexibility. (i) Biotinylated peptide was bound in microtiter wells coated with streptavidin and incubated with recombinant human receptors. After extensive washing, the bound receptor was measured by peroxidase conjugated to a receptor-specific antibody. (ii) The extracellular domains of receptors, which were fused with the Fc domain of immunoglobulin IgG, were bound in wells coated with protein A/G. Biotinylated peptide was incubated with the receptors and, after extensive washing, bound peptide was measured with streptavidin conjugated with peroxidase. Or (iii), recombinant receptors with a poly-His tag were bound to Nickel-coated wells and incubated with biotinylated peptide. svL4 and sv6D contain His residues (see Table 1) and can bind to the Ni coating, which was minimized by adding sufficient poly-His-tagged receptor to saturate the Ni coating.

[6] = biological target: T2, human ASGPR-1 (Homo sapiens, UniProt P07306); assay: Solid-phase binding to recombinant human ASGPR-1; settings: for binding to ASGPR-1: Fig. 2a, representative of 3 independent experiments
T2 construct: purchased R&D Systems
T2 sequence (P07306 62-291 limits assumed): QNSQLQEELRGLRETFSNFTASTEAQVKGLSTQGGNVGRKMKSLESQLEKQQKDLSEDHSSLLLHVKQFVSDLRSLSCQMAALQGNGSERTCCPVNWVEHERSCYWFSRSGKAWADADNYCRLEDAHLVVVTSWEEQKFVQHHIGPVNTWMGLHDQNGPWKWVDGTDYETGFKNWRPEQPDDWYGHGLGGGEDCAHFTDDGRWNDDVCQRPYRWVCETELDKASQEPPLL
Protocol: as §1, §2

[7] = system: peritoneal cells of C57BL/6 mice; assay: Peritoneal immune cell populations by flow cytometry, C57BL/6 mice; type: in vivo, mouse (C57BL/6); settings: 1 nmole/g s.c., 5-day period, Fig. 5 (non-binding control)
Protocol: Healthy C57BL/6 male mice, 10 weeks old, were injected subcutaneously with peptides on alternate days. Peritoneal cells were isolated from mice 24 h after dosing by injecting ice cold PBS (containing 3% FBS) into the peritoneal cavity, gently massaging the abdomen, and then collecting the fluid, which was transferred into K2EDTA-treated tubes for evaluation of specific biomarkers. Cells from three mice in each group were pooled, counted and divided among FACS tubes (1 × 10^6 cells per tube). Cells were washed once in PBS containing 3% FBS, then stained with 0.25 to 1 μg of fluorescently conjugated antibody per 10^6 cells in 100 μL of buffer as recommended by the manufacturer (Table 2).
Cells were incubated with the antibodies for 30 min at 4 °C in the dark. Following staining, the cells were washed two times with PBS/3% FBS and immediately analyzed with a MACSQuant flow cytometer (Miltenyi Biotech, Inc., San Diego, CA). Compensation was performed using single stain tubes for each color present in the analysis as well as an unstained control sample. Collection of flow cytometric data and analysis with FlowJo software, version 10.0.6 (FlowJo, LLC, Ashland, OR) were performed by Biomodels LLC (Watertown, MA).
To examine whether increases occurred in mature immune cells, peritoneal cells from Balb/c and C57BL/6 mice were analyzed by flow cytometry after cells were stained with the markers listed in Table 2. […] To explore this observation more extensively, svL4 or sv6D was injected into C57BL/6 mice on day 0, 2 or 4. Peritoneal cells were examined by flow cytometry 24 h after each injection. Shown in Fig. 5 are results expressed as cell counts for F4/80 CD11b CD86 (mature, active macrophages); CD11c (DCs); CD11c CD 86 (activated DCs); CD4 CD69 (activated T cells); CD8 CD69 (activated cytotoxic T cells); NK1.1 CD3^+ CD69 (activated NKT cells); NK1.1 CD3^− CD69 (activated NK cells); CD19 (B cells); and CD19 CD73 CD80 CD273 (memory B cells). The numbers of these mature, activated cells continued to increase with each injection.
Fig. 5 Expansion of peritoneal cells in C57BL/6 mice. Mice were injected subcutaneously at a dose of 1 nmole/g body weight of svL4, sv6D or svC1. Cells in each population recovered in a peritoneal lavage are expressed as cell counts (in thousands). Cells from three mice in each treatment group were pooled for analysis. The number of cells in each population was normalized to the average recovery of total cells from all groups. For each cell type, the left-hand, middle and right-hand set of bars represent samples from mice treated with svL4, sv6D or svC1, respectively. Mice were injected on days 0, 2 and 4, and cells were collected 24 h after each injection. Day 1, open bar; day 3, grey bar; day 5, black bar. Populations that express activation markers are indicated by an asterisk

[8] = system: PD-1; settings: patients with ovarian cancer; ref [106], [107]; cited from earlier work
Excerpt: Paclitaxel is currently used as a chemotherapeutic drug that acts by stabilizing microtubules and arresting cells in the cell cycle at the G2/M boundary. Paclitaxel is often combined with a platinum-based drug. Patients treated with these drugs experience a significant level of toxicity. […] However, because sv6D induces proliferation of immune cells, initiation of treatment should perhaps occur after the cell cycle inhibitory action of paclitaxel has dissipated. Pat ...

[9] = biological target: recombinant human CLEC10A (C-type lectin receptor family member 10A) (human) (UniProt Q8IUN9); assay: ELISA; solid-phase binding assay as a function of the concentration of peptide; KD from double-reciprocal plots of the binding curves; extensive wash steps
[10] = biological target: recombinant human asialoglycoprotein receptor-1 (ASGPR-1) (human) (UniProt P07306); assay: as above
[11] = double-reciprocal plot of binding vs. peptide concentration, biotinylated peptide, binding buffer 25 mM Tris HCl pH 7.4, 150 mM NaCl, 0.05% Tween-20, 1 h, streptavidin-peroxidase 450 nm, ± S.D., 4 separate assays

CC(=O)N[C@H]1C(O)O[C@H](CO)[C@H](O)[C@@H]1O (mixture of isomers) [GalNAc, N-acetylgalactosamine]
preference of ASGPR-1 for GalNAc over Gal ([1]; ref [39]): 60 fold

CC(=O)O[C@H]1C(=O)[C@@]2(C)[C@H]([C@H](OC(=O)c3ccccc3)[C@]3(O)C[C@H](OC(=O)[C@H](O)[C@@H](NC(=O)c4ccccc4)c4ccccc4)C(C)=C1C3(C)C)[C@]1(OC(C)=O)CO[C@@H]1C[C@@H]2O [paclitaxel]
body weight increase (ascites) ([2]; aggressive disease, two weeks of treatment, sv6D 0.1 nmole/g s.c. alternate days, paclitaxel 18 μg/g i.p. days 45, 47, 49): had not significantly increased | ρ of body weight on day 58 vs. PBS or no treatment ([2]; paclitaxel 18 μg/g i.p. days 45, 47, 49, t test, Fig. 6a): < 0.05 | median survival ([2]; paclitaxel alone, PBS control 122 days, Fig. 6c): approximately 141 days | ρ of body weight on day 121, paclitaxel vs. PBS ([2]; t test, Fig. 6b): < 0.05

Asialofetuin: multi-glycosylated protein
IC50 ([1]; ASGPR-1, ref [43]): 45600 ± 2700 nM | inhibition of binding of svL4 to ASGPR-1 [3]: 53%

I: NQHTPRGGGSKK-NH2 / II: NQHTPRGGGSK / III: NQHTPRGGGS / IV: NQHTPRGGGS (amide I:11-IV:C, I:12-II:C, II:11-III:C) [sv6D]
antibodies that bind the peptides in mouse sera [4]: negative | Kd [5, 11]: 150 ± 20 nM | Kd [6, 11]: 120 ± 10 nM

[(VQATQS- GGGS)2K]2K-NH2 [svC1]
expansion of specific cell types [7]: did not increase significantly | binding to CLEC10A [5]: near the level of blank wells; also recorded: does not bind to CLEC10A | binding to ASGPR-1 [6]: near the level of blank wells

[(VSNQH- GGGS)2K]2K-NH2 [svD2]
binding to CLEC10A [5]: bound weakly | binding to ASGPR-1 [6]: bound weakly

nivolumab: antibody against the inhibitory receptor PD-1
overall response rate [8]: 15%

pembroliumab: antibody against the inhibitory receptor PD-1
overall response rate [8]: 15%

B1: svL4, tetravalent peptide [(…-GGGS)2K]2K-NH2 (designed binder)
chain 1: VQATQSNQHTPRGGGS
chain 2: Lys-Lys-Lys-NH2
modifications: not fully specified; printed as [(VQATQSNQHTPR-GGGS)_2_K]_2_K-NH_2_; also: tetravalent: four arms joined by C-termini to branched tri-lysine core
Kd [9]: 240 nM | Kd [10]: 210 nM
